Results as given in patent US3988456A, “1,2-Diphenylethanolamine derivatives and their salts and the preparation thereof” (Dainippon Pharmaceutical Co., Ltd., priority 1974, dated 1976).
Where a name gives a salt, the structure may show the parent alone.

Tests used:
female mice = assay: Analgesic activity: Phenylquinone method (chemical pain); type: in vivo, mice (ddN strain); details: drugs given 30 minutes before i.p. phenylquinone; for ED50: Mus musculus, po
Description: ii. Phenylquinone method (cf. E. Siegmund, R. Cadmus and G. Lu, Proc. Soc. Exptl. Biol. Med., Vol. 95, page 729, 1957)
Chemical pain was induced by an intraperitoneal injection of 0.1 ml/10 g body weight of 0.03 % phenylquinone in 5 % aqueous ethanol in female mice, weighing 18 to 22 g of ddN strain. Drugs were given 30 minutes before challenge of phenylquinone.

male mice of ddN strain = assay: Analgesic activity: D'Amour-Smith method (thermal pain); type: in vivo; details: response time prolonged more than 100 %; for ED50: Mus musculus, sc; for Analgesic ED50 value, D'Amour-Smith method: s.c.
Description: i. D'Amour-Smith method (cf. F. E. D'Amour and D. L. Smith, J. Pharmacol., Vol. 72, page 74, 1941)
Thermal pain was induced by radiating heat light on the tail blacked with a black ink of male mice of ddN strain, weighing 9 to 12 g, using the modified apparatus of D'Amour-Smith. The analgesic ED50 -value was calculated from the number of positive animals showing the response time prolonged more than 100 % compared with each before value.

Male guinea-pigs = assay: Anti-tussive activity (coughs by mechanical stimulation); type: in vivo; details: intraperitoneal; for anti-tussive activity: dose of 5-40 mg/kg; for anti-tussive activity compared with codeine phosphate: vs codeine phosphate
Description: 2. Anti-tussive activity (cf. K. Takagi, H. Fukuda and K. Yano, Yakugakuzasshi, Vol. 80, page 1497, 1960)
Male guinea-pigs, weighing 350 to 450 g, were used. Coughs were caused by successive mechanical stimulations with whiskers, and anti-tussive effects were evaluated by all or none of the cough. The Test Compounds F and G were intraperitoneally injected.

| Structure (SMILES) | ED50 (female mice) [mg/kg] | ED50 (male mice of ddN strain) [mg/kg] | further results |
| --- | --- | --- | --- |
| COc1ccc(CN2CCN([C@H](c3ccccc3C)[C@@H](O)c3ccccc3)CC2)cc1 (relative stereo) [Test Compound E, dl-Erythro-1-phenyl-2-(o-tolyl)-2-[4-(p-methoxybenzyl)-piperazin-1-yl]ethanol dihydrochloride] | 30.2 | 65.2 | – |
| COc1ccc(CN2CCN([C@H](c3ccccc3)[C@@H](O)c3cccc(C)c3)CC2)cc1 (relative stereo) [Test Compound G, dl-erythro-1-(m-tolyl)-2-phenyl-2-[4-(p-methoxybenzyl)piperazine-1-yl]ethanol dihydrochloride] | – | – | anti-tussive activity (Male guinea-pigs): excellent anti-tussive activity in a dose of 5-40 mg/kg; anti-tussive activity compared with codeine phosphate (Male guinea-pigs): comparable with that of codeine phosphate |
| COc1ccc(CN2CCN([C@H](c3ccc(C)cc3)[C@@H](O)c3ccc(C)cc3)CC2)cc1 (relative stereo) [Test Compound D, dl-Erythro-1-(p-tolyl)-2-(p-tolyl)-2-[4-(p-methoxybenzyl)piperazin-1-yl]ethanol dihydrochloride] | 55.6 | 98.6 | – |
| COc1ccc(CN2CCN([C@H](c3ccccc3)[C@@H](O)c3ccc(Cl)cc3)CC2)cc1 (relative stereo) [Test Compound A, dl-Erythro-1-(p-chlorophenyl)-2-phenyl-2-[4-(p-methoxybenzyl)piperazin-1-yl]ethanol dihydrochloride] | 49.9 | – | – |
| Cl.Cl.O=C(c1ccccc1)C(c1ccccc1)N1CCN(Cc2ccccc2)CC1 (racemic) [compound 2, dl-2-Phenyl-2-(4-benzylpiperazin-1-yl)acetophenone dihydrochloride, reference compound] | – | > 320 | – |
| COc1ccc(CN2CCN([C@H](c3ccccc3OC)[C@@H](O)c3ccccc3)CC2)cc1 (relative stereo) [Test Compound C, dl-Erythro-1-phenyl-2-(o-methoxyphenyl)-2-[4-(p-methoxybenzyl)piperazin-1-yl]ethanol dihydrochloride] | 28.6 | 32.5 | – |
| CN1CCN([C@H](c2ccccc2)[C@@H](O)c2ccccc2)CC1 (relative stereo) [compound 1, dl-Erythro-1,2-diphenyl-2-(4-methylpiperazin-1-yl)ethanol dihydrochloride, reference compound] | – | – | Analgesic ED50 value, D'Amour-Smith method (male mice of ddN strain): inactive |
| COc1ccc(CN2CCN(C(c3ccccc3)C(O)c3ccccc3)CC2)cc1.Cl.Cl (stereo not drawn) [Test Compound F, d-Erythro-1,2-diphenyl-2-[4-(p-methoxybenzyl)piperazin-1-yl]ethanol dihydrochloride] | – | – | Analgesic ED50 value, Phenylquinone method (female mice; p.o.): 63.2 mg/kg; Analgesic ED50 value, D'Amour-Smith method (male mice of ddN strain): 37.2 mg/kg; anti-tussive activity (Male guinea-pigs): excellent anti-tussive activity in a dose of 5-40 mg/kg; anti-tussive activity compared with codeine phosphate (Male guinea-pigs): more potent than that of codeine phosphate |
| Cc1c(N(C)C)c(=O)n(-c2ccccc2)n1C [compound 3, Aminopyrine, reference compound] | 53.3 | 233 | – |
| COc1ccc(CN2CCN([C@H](c3ccccc3Cl)[C@@H](O)c3ccccc3)CC2)cc1 (relative stereo) [Test Compound B, dl-Erythro-1-phenyl-2-(o-chlorophenyl)-2-[4-(p-methoxybenzyl)piperazin-1-yl]ethanol dihydrochloride] | 45.1 | 55.5 | – |
